Here are results for 1 compound from patent publication US7291629B2, “Neurotrophin antagonist compositions” (Painceptor Pharma Corporation, priority 1996, dated 2007).

The subject of assay [1] is chick embryo dorsal root ganglia (DRG) neurons. The assay is described as follows: Inhibition of neurite outgrowth (NGF-stimulated DRG neurons). The assay is classed as cell-based. The settings on record: 0.25 ng/mL NGF, NGF Control 1.000. On the procedure: Eight-day chick embryo dorsal root ganglia (DRG) were freed of meninges and removed aseptically. The DRG were kept at 4° C. at all times. Ganglia from six embryos (40-50 per embryo) were washed in Ca^2+-and Mg^2+-free Gey's balanced salt solution (Gibco) and exposed to 0.01% trypsin (Worthington) in the same solution for 10 min at 37° C. A half-volume of phosphate-buffered Gey's balanced salt solution was added for a further 5 min at 37° C. and the reaction was then terminated with one-third volume of Ham's F12 medium (Gibco) containing 5% fetal calf serum (FCS, Gibco). The ganglia were then triturated using a 5 mL narrow-tip pipette to a single cell suspension. Following filtration through […] nylon mesh (Small Parts Inc., Miami, Fla.) in a Millipore chamber to remove clumps, the cell suspension was washed through a 500-ml FCS undercut (700×g for 5 min at 4° C.) and resuspended in 4 mL of Ham's F12 medium plus 5% FCS. The cell suspension was then preplated on a 100-mm Flacon culture dish and incubated for 45-60 min at 37° C. in a 5% CO2 humidified atmosphere. Cells enriched in neurons were decanted for the bioassay, since non-neuronal cells of DRG preferentially stick to the culture substrate.
The inside wells of 96-well Falcon microculture plates were coated with polylysine (0.1 mg/mL) (Sigma) for 4 h at 37° C. (the outside wells were filled with distilled water to provide humidity) and, following a rinse with tissue culture media, […] of neuron-rich cell suspension was added to each well at 10^5 cells/mL. Ninety (90) […] of NGF solution (prepared in tissue culture media) was then added to each well to a final concentration of 0.25 ng/mL NGF per well. […]
The bioassays were read using a Leitz Diavert microscope with phase optics. […] At least 100 neurons per well were counted, and the assay was scored as the ratio of cells bearing neurites greater than one cell diameter to total viable (phase bright) cells.

The next assay deals with nerve-ligated rats. The assay is described as follows: Nerve-ligated injury model of neuropathic pain, i.c.v. administration (tactile allodynia, thermal hyperalgesia, acute nociception). The settings on record: given i.c.v. The assay is classed as in vivo, rat.
Assay [2] concerns L5/L6 Nerve Ligated and Sham-Operated Rats. The settings on record: for A50(95% C.L.) Tail Flick- Ligated: L5/L6 nerve ligated rats; for A50(95% C.L.) Tail Flick- Sham: sham-operated rats.
The test system is the same in assay [3]. The settings on record: for A50(95% C.L.) Hot Plate- Ligated: L5/L6 nerve ligated rats; for A50(95% C.L.) Hot Plate- Sham: sham-operated rats.
A further assay concerns L5/L6 Nerve Ligated rats. Put plainly: Tactile allodynia, nerve ligation injury model (von Frey paw withdrawal threshold).

Where two headings read alike, the source gives them in different places.

For the compound `O=C1c2cccc3cc([N+](=O)[O-])cc(c23)C(=O)N1CCO` [Compound A], the results for the “Ratio (cells bearing neurites greater than one cell diameter to total viable cells)” value in assay [1] (5 μM compound), in assay [1] (50 μM compound) and in assay [1] (100 μM compound) were 1.1, 0.16 and 0.016, respectively. Also, in the assay on nerve-ligated rats, the “Activity in nerve-ligated injury model of neuropathic pain” value was “not active”. The results for the “A50(95% C.L.) Tail Flick- Ligated” value in assay [2] (i.p.) and in assay [2] (i.th) were 27.8 mg/kg and 78 µg, respectively. Also, the results for the “A50(95% C.L.) Tail Flick- Sham” value in assay [2] (i.p.) and in assay [2] (i.th) were 25.7 mg/kg and 34 µg, respectively. In addition, the entries for the “A50(95% C.L.) Hot Plate- Ligated” value in assay [3] (i.p.) and in assay [3] (i.th) were 18.6 mg/kg and 14.8 µg, respectively. For the same compound, the “A50(95% C.L.) Hot Plate- Sham” value in assay [3] (i.p.) amounted to 34.9 mg/kg; in assay [3] (i.th), 48.1 µg. In addition, the figures for the “A50(95% C.L.) Allodynia- Ligated” value in the assay on L5/L6 Nerve Ligated rats (i.p.) and in the assay on L5/L6 Nerve Ligated rats (i.th) were 38 mg/kg and 34.6 µg, respectively.
